Results as given in ChEMBL document CHEMBL4814074 (Bioorg Med Chem Lett, 2021).
pEC50: −log10 of the molar value.

Key:
[1] = target: hERG (KCNH2) (Homo sapiens, UniProt Q12809); test: Inhibition of human ERG at 3 uM relative to control
[2] = tested on: Lassa virus; test: Antiviral activity against pseudotyped Lassa mammarenavirus; format: functional, organism-based; conditions: Mammarenavirus lassaense
[3] = tested on: Machupo mammarenavirus; test: Antiviral activity against pseudotyped Machupo virus; format: functional, organism-based; conditions: Mammarenavirus machupoense
[4] = tested on: Junin virus; test: Antiviral activity against pseudotyped Junin virus; format: functional, organism-based; conditions: Mammarenavirus juninense
[5] = (§1) Cytotoxicity against African green monkey Vero cells measured after 5 days; format: cell-based; conditions: chlorocebus sabaeus, Vero cells; time 5 day
[6] = tested on: Vero; test: as §1; format: cell-based; conditions: chlorocebus sabaeus, vero, 120 h; time 5 day
[7] = tested on: Junin virus; test: Antiviral activity against Junin virus by virus yield reduction assay; format: functional, organism-based; conditions: Mammarenavirus juninense
[8] = target: CYP2C19 (Homo sapiens, UniProt P33261); test: Inhibition of CYP2C19 (unknown origin) at 20 uM; format: ADME
Chain of CYP2C19 (P33261 whole entry): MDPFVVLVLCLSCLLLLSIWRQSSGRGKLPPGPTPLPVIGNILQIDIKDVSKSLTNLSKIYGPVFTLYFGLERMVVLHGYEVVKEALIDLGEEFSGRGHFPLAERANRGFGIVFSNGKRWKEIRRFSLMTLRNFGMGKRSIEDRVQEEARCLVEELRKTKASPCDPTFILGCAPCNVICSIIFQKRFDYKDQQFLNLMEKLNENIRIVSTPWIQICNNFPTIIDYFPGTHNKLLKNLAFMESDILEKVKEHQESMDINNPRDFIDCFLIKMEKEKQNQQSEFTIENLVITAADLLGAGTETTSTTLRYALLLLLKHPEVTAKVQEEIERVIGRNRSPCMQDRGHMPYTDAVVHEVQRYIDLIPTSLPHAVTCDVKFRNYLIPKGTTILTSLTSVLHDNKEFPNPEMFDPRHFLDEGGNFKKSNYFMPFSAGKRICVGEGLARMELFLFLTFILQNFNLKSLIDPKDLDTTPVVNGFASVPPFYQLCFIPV

[9] = target: CYP2D6 (Homo sapiens, UniProt P10635); test: Inhibition of CYP2D6 (unknown origin) at 20 uM; format: ADME
Chain of CYP2D6 (P10635 whole entry): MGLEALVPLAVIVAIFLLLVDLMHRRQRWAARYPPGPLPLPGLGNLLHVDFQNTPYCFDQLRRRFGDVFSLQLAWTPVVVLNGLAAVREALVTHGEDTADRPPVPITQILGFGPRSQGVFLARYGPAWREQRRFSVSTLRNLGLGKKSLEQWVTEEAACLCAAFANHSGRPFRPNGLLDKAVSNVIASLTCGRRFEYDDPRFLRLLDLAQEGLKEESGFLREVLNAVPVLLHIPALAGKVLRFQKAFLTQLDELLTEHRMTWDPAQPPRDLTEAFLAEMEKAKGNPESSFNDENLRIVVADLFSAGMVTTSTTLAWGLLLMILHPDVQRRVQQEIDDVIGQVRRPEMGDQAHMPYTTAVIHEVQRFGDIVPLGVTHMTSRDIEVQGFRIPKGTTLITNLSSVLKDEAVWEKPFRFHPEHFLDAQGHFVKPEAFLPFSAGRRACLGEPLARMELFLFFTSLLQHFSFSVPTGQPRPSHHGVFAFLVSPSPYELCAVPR

[10] = target: CYP2C9 (Homo sapiens, UniProt P11712); test: Inhibition of CYP2C9 (unknown origin) at 20 uM; format: ADME
Chain of CYP2C9 (P11712 whole entry): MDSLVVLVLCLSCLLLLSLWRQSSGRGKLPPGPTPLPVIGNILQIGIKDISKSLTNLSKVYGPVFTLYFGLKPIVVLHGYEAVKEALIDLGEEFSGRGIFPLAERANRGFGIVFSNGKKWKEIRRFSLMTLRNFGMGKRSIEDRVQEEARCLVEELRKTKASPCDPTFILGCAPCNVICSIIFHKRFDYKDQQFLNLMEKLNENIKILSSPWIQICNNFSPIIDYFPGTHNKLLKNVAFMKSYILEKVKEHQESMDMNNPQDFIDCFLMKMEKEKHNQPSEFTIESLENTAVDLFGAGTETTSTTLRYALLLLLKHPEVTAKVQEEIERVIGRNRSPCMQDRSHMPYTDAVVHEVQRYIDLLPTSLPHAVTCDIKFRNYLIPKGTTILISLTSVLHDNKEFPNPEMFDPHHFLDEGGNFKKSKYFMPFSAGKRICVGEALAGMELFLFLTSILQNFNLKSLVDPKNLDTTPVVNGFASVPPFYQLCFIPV

[11] = target: CYP3A4 (Homo sapiens, UniProt P08684); test: Inhibition of CYP3A4 (unknown origin) at 20 uM; format: ADME
Chain of CYP3A4 (P08684 whole entry): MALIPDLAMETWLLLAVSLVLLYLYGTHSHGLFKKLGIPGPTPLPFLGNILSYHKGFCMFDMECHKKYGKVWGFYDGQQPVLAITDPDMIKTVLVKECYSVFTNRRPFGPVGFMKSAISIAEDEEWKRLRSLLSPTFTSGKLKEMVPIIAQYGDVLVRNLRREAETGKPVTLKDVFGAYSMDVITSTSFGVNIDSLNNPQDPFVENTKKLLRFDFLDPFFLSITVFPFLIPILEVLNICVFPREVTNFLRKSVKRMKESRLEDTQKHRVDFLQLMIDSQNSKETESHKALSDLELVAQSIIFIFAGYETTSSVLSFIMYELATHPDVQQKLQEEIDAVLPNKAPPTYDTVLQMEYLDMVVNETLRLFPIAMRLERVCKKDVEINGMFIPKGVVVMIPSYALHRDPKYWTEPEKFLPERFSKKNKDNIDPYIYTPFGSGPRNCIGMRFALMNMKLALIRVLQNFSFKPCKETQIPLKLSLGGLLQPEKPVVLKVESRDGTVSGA

[12] = target: T1, CYP1A2 (Homo sapiens, UniProt P05177); test: Inhibition of CYP1A2 (unknown origin) at 20 uM; format: ADME
T1 sequence (P05177 whole entry): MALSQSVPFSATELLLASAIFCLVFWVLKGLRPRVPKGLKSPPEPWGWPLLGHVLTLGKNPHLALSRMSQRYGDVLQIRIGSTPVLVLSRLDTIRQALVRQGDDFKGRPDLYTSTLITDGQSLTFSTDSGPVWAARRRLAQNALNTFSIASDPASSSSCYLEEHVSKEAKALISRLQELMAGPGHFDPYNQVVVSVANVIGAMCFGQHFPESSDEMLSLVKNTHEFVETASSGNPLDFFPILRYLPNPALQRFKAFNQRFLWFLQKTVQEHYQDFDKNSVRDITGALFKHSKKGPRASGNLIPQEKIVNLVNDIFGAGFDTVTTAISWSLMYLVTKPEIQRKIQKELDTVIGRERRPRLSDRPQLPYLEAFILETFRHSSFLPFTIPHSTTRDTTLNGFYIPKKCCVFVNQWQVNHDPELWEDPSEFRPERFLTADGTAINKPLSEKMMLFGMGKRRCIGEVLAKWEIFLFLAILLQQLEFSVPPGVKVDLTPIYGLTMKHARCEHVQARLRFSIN

[13] = tested on: Lassa virus; test: Antiviral activity against Lassa virus by virus yield reduction assay; format: functional, organism-based; conditions: Mammarenavirus lassaense
[14] = tested on: Lassa virus; test: Antiviral activity against Lassa virus by plaque reduction assay; format: functional, organism-based; conditions: Mammarenavirus lassaense

Chain of hERG (KCNH2) (Q12809 whole entry): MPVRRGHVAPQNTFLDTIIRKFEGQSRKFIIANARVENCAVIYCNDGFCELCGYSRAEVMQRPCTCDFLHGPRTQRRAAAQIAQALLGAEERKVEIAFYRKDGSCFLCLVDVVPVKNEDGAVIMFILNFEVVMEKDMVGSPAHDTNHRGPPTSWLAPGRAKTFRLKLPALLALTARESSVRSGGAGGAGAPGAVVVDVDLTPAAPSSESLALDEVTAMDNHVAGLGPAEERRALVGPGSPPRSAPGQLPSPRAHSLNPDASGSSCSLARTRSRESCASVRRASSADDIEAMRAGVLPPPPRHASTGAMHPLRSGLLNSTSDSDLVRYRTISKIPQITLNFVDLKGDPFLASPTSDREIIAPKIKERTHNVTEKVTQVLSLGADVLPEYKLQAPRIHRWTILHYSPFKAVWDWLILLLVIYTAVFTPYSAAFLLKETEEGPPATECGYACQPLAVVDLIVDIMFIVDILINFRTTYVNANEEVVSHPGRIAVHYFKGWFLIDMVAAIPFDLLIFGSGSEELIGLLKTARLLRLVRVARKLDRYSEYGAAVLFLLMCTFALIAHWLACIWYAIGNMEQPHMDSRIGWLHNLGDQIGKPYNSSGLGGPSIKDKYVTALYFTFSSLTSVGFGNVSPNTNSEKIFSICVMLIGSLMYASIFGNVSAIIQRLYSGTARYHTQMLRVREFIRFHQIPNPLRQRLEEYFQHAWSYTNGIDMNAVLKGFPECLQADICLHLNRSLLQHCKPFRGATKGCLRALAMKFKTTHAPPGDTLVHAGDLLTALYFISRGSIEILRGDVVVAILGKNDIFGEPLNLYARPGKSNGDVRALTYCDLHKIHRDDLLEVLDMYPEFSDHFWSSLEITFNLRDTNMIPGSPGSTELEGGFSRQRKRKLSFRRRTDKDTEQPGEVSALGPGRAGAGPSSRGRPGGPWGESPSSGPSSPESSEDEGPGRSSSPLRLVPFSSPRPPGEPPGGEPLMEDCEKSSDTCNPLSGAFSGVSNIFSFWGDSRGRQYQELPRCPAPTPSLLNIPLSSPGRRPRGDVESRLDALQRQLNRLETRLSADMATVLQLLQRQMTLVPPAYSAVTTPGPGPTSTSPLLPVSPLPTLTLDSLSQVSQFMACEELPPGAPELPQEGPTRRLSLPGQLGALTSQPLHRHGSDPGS

Row | Compound | inhibition at 3 µM [1] [%] | pEC50 [2] | pEC50 [3] | pEC50 [4] | further results
1 | CC(C)Oc1ccc(-c2ccc3ncn(-c4ccc(OC(C)C)cc4)c3n2)cc1 | < 10 |  |  |  | 
2 | CC(C)Oc1ccc(-c2ccn3cnc(-c4ccc(OC(C)C)cc4)c3c2)cc1 |  | 7.68 | < 7.60 | 7.66 | CC50 at 120 h [5]: 7540 nM
3 | Cc1c(-c2ccc(OC(C)C)cc2)ccc2ncc(-c3ccc(OC(C)C)cc3)n12 |  | 9.49 | 9.80 | 9.77 | CC50 [6]: 4190 nM
4 | Cc1cc2nnn(-c3ccc(OC(C)C)cc3)c2cc1-c1ccc(OC(C)C)cc1 | < 10 | 8.98 | 9.28 | 9.68 | pEC50 [7]: > 9.00; EC90 [7]: 2.4 nM
5 | CC(C)Oc1ccc(-c2ccc3nnn(-c4ccc(OC(C)C)cc4)c3c2)cc1 | 17 |  |  |  | 
6 | CC(C)Oc1ccc(-c2cnc3ccc(-c4ccc(OCCN5CCOCC5)cc4)cn23)cc1 |  | < 7.60 | < 7.60 | < 7.60 | 
7 | CC(C)Oc1ccc(-c2ccc3ncc(-c4ccc(OC(C)(C)C)cc4)n3c2)cc1 | 48 |  |  |  | 
8 | Cc1cc2ncc(-c3ccc(OC(C)C)cc3)n2cc1-c1ccc(OC(C)C)cc1 | 14 |  |  |  | inhibition at 20 µM [8]: < 21%; inhibition at 20 µM [9]: < 21%; inhibition at 20 µM [10]: < 21%; inhibition at 20 µM [11]: < 21%; inhibition at 20 µM [12]: < 21%
9 | CC(C)Oc1ccc(-c2ccc3ncn(-c4ccc(OC(C)C)cc4)c3c2)cc1 | 30 |  |  |  | 
10 | CC(C)Oc1ccc(-c2cnc3ncc(-c4ccc(OC(C)C)cc4)n3c2)cc1 | 37 |  |  |  | 
11 | CC(C)Oc1ccc(-c2ccc3nnc(-c4ccc(OC(C)C)cc4)n3c2)cc1 | 57 |  |  |  | 
12 | CC(C)Oc1ccc(-c2ccc3cnn(-c4ccc(OC(C)C)cc4)c3c2)cc1 |  | < 7.60 | < 7.60 | 7.85 | 
13 | CC(C)Oc1ccc(-c2cnc3ccc(-c4ccc(C(N)=O)cc4)cn23)cc1 |  | < 7.60 | < 7.60 | < 7.60 | 
14 | CC(C)Oc1ccc(-c2ccc3cnc(-c4ccc(OC(C)C)cc4)n3c2)cc1 |  | < 7.60 | < 7.60 | < 7.60 | 
15 | Cc1cc2ncc(-c3ccc(OC(C)(C)C)cc3)n2cc1-c1ccc(OC(C)C)cc1 | < 10 | 9.17 | 9.77 | 9.52 | inhibition at 20 µM [8]: < 21%; inhibition at 20 µM [9]: < 21%; inhibition at 20 µM [10]: < 21%; inhibition at 20 µM [11]: < 21%; inhibition at 20 µM [12]: < 21%; pEC50 [13]: > 9.52; EC90 [13]: 0.87 nM; pEC50 [7]: 9.22; EC90 [7]: 1.2 nM; pEC50 [14]: > 8.48; EC90 [14]: < 3.3 nM
16 | Cc1cc2ncn(-c3ccc(OC(C)C)cc3)c2cc1-c1ccc(OC(C)C)cc1 | < 10 | 9.19 | 9.77 | 9.96 | inhibition at 20 µM [8]: < 21%; inhibition at 20 µM [9]: < 21%; inhibition at 20 µM [10]: < 21%; inhibition at 20 µM [11]: 44%; inhibition at 20 µM [12]: < 21%; pEC50 [13]: 8.92; EC90 [13]: 2.1 nM; pEC50 [14]: > 8.48; EC90 [14]: < 4.2 nM
17 | CC(C)Oc1ccc(-c2cnc3ccc(-c4ccc(OC(C)C)cc4F)cn23)cc1 |  | < 7.60 | < 7.60 | < 7.60 | 
18 | Cc1cc2ncn(-c3ccc(OC(C)(C)C)cc3)c2cc1-c1ccc(OC(C)(C)O)cc1 | < 10 | 8.40 | 9.92 | 9.00 | inhibition at 20 µM [8]: < 21%; inhibition at 20 µM [9]: < 21%; inhibition at 20 µM [10]: < 21%; inhibition at 20 µM [11]: < 21%; inhibition at 20 µM [12]: < 21%; pEC50 [13]: > 9.52; EC90 [13]: < 0.3 nM; pEC50 [7]: 9.05; EC90 [7]: 6.2 nM; pEC50 [14]: > 8.48; EC90 [14]: < 3.3 nM
19 | CC(C)Oc1ccc(-c2ccc3ncc(-c4ccc(OC(C)C)cc4)n3c2)cc1 | 89 |  |  |  | 
20 | CC(C)Oc1ccc(-c2ccc3ccn(-c4ccc(OC(C)C)cc4)c3c2)cc1 |  | < 7.60 | 7.69 | 9.05 | 
